According to patent US9625466B2, “Signal amplification methods for the imaging of protein synthesis and neurotransmitter transport” (CORNELL UNIVERSITY, priority 2011, dated 2017):
Values joined by “and” are separate entries in the source; they are usually repeats but may differ in a detail not shown here. Equal values may be shown once. Read-outs that look alike come from different tables or passages of the source. Marks after values point to notes of the source that are not given here.

Assays:
[1] = target: T1, ternary complex (Escherichia coli, UniProt P0CE48); test: Equilibrium titration of nucleotide into Cy3-labeled Phe-tRNAPhe with saturating EF-Tu; assay type: binding, E. coli; settings: for RF Increase (%): Cy3 relative fluorescence increase at saturation, nucleotide titrated
T1 construct: 6-His tag followed by TEV protease site (N); made in house; host or cells: E. coli (bacterial expression vector pPROEX-Ht-b)
Source text: Initial experiments focused on the molecular determinants of ternary complex formation in vitro using E. coli EF-Tu and tRNA^Phe. […] Depending on the solution conditions of the experiment, the formation of ternary complex can be detected as either a rise or fall in fluorescence intensity depending strongly on the solution conditions of the Cy3 fluorophore linked to tRNA^Phe. Other tRNA species (e.g., Cy3-labeled tRNA^Lys) undergo similar changes in fluorescence intensity.
Fluorescence experiments were performed using a Photon Technology International fluorescence meter with a 550 nm high pass filter on the emission side. All samples were analyzed in a 3 mL quartz cuvette, with a stir bar, maintained at 23° C. […] Fluorescence intensity was measured by exciting Cy3 labeled tRNA^Phe with 532 nm light and recording emission intensities at 565 nm. The sample was allowed to mix for 1 minute after each subsequent addition of reagent before data acquisition.
[formula] (Abrahamson 1985). Values of Kd were obtained by performing a nonlinear least squares fit of the data from fluorescence experiments to equation 5 in Matlab (R2011a). The best-fit values are reported with asymptotic 95% confidence intervals.
To assess the affinity and nature of GTP's interactions with ternary complex, analogous titration experiments were carried out in which GTP was added to a solution of 5 nM Phe-tRNA^Phe (Cy3-acp3U47) in the presence of saturating concentrations of EF-Tu (40 times IQ). […] The non-hydrolysable analogs each saturated at a relative fluorescence value well below 30%, illustrating EF-Tu's sensitivity to the position of the gamma phosphate.

[2] = target: T1, ternary complex; test: Functional drug assay: dissociation of pre-formed fluorescent ternary complex; assay type: biochemical, E. coli; settings: for kapp,2 apparent rate of ternary complex dissociation: compound added to pre-formed ternary complex (400 nM EF-Tu/EF-Ts, 5 nM Cy3 Phe-tRNAPhe, 10 μM GTP), GDP 100 μM
Experimental: After ternary complex was formed, drug was added to a final concentration of 1 μM. Decay curves were fit using non-linear least squares method as previously mentioned.
To test this hypothesis, ternary complex was formed at low, saturating concentrations of GTP (10 μM). […] To the formed complex, 100 μM GDP was then added and the rate of ternary complex dissociation was followed as a function of time.
To illustrate the dynamic equilibrium that exists between ternary complex and its constituents, EF-Tu-targeting drugs were delivered to pre-formed ternary complex in the same manner as GDP described above.

[3] = target: EF-Tu (Escherichia coli, UniProt P0CE47); settings: cited from earlier work
[4] = system: Phe-tRNA^Phe
[5] = system: Phe-tRNA^Phe; settings: 4° C., pH 7.4; cited from earlier work
[6] = system: Phe-tRNA^Phe; settings: for RF Increase (%): Cy3 relative fluorescence increase on ternary complex formation, EF-Tu titrated
[7] = 5 nM Phe-tRNAPhe (Cy3-acp3U47), saturating EF-Tu (400 nM EF-Tu/EF-Ts), read-out: Kd (apparent affinity of nucleotide for ternary complex)

Nc1nc2c(ncn2[C@@H]2O[C@H](COP(=O)(O)OP(=O)(O)NP(=O)(O)O)[C@@H](O)[C@H]2O)c(=O)[nH]1 [GDPNP, guanylyl-imino-diphosphate]
Kd [1, 7]: 9270 nM | RF Increase (%) [1]: 7.3%

Nc1nc2c(ncn2[C@@H]2O[C@H](COP(=O)(O)OP(=O)(O)O)[C@@H](O)[C@H]2O)c(=O)[nH]1 [GDP]
kapp,2 apparent rate of ternary complex dissociation [2]: 0.3 s⁻¹ and 0.30 s⁻¹ | affinity for GDP relative to GTP ([3]; EF-Tu): 40 fold | dissociation rate of GDP from EF-Tu•GDP•EF-Ts ([3]; Gromadski 2002): 125 s⁻¹

Nc1nc2c(ncn2[C@@H]2O[C@H](COP(=O)(O)OP(=O)(O)OP(O)(O)=S)[C@@H](O)[C@H]2O)c(=O)[nH]1 [GDPγS, guanosine 5′[γ-thio]triphosphate]
Kd [1]: 3670 nM | RF Increase (%) [1]: 5.5%

Nc1nc2c(ncn2[C@@H]2O[C@H](COP(=O)(O)OP(=O)(O)OP(=O)(O)O)[C@@H](O)[C@H]2O)c(=O)[nH]1 [GTP, guanosine nucleotide triphosphate]
Kd [1, 7]: 696 nM | RF Increase (%) [1]: 30% | Kd ([1]; Example 2, saturating EF-Tu (~300 nM), read-out: affinity of GTP in the formation of ternary complex): ~200 nM | kon of GTP for the complex (kon=koff/KD) ([1]; model, from koff 0.3 s^−1 and KD): ~1e+06 M⁻¹ s⁻¹

C=C(NC(=O)C(=C)NC(=O)c1csc(C2=N[C@@H]3c4csc(n4)[C@H]4NC(=O)c5csc(n5)[C@H]([C@](C)(O)[C@@H](C)O)NC(=O)[C@H]5CSC(=N5)/C(=C/C)NC(=O)[C@H]([C@@H](C)O)NC(=O)c5csc(n5)[C@]3(CC2)NC(=O)[C@H](C)NC(=O)C(=C)NC(=O)[C@H](C)NC(=O)[C@H]([C@@H](C)CC)N[C@@H]2C=Cc3c([C@H](C)O)cc(nc3[C@H]2O)C(=O)O[C@@H]4C)n1)C(N)=O [Thiostrepton]
kapp,2 apparent rate of ternary complex dissociation [2]: 0 s⁻¹ | disruption of the ternary complex ([2]; thiostrepton added to pre-formed ternary complex (10 μM per FIG. 17)): did not lead to disruption of the ternary complex

EF-Tu (GTP): elongation factor Tu from E. coli, GTP-bound form, added as EF-Tu/EF-Ts complex
association constant kon ([4]; EF-Tu and GTP (10 μM) added to 5 nM Cy3-labeled Phe-tRNAPhe): 1.4e+06 M⁻¹ s⁻¹ | dissociation rate koff ([4]; fit of triplicate time course to equation 7): 0.08 s⁻¹ | rate of association determined previously [5]: 1.5e+06 M⁻¹ s⁻¹ | RF Increase (%) [6]: 30% | RF Increase (%) ([6]; listed as EF-Tu): approximately 30% | Kd ([6]; read-out: Kd (apparent dissociation constant between EF-Tu•GTP and Phe-tRNAPhe), 5 nM Phe-tRNAPhe (Cy3-acp3U47), 10 μM GTP, 23° C., ± 95% CI): 12.7 ± 1.1 nM | Kd ([6]; read-out: Kd (apparent dissociation constant between EF-Tu•GTP and Phe-tRNAPhe), 5 nM Phe-tRNAPhe (Cy3-acp3U47), 10 μM GTP, 23° C., ± 95% CI, listed as EF-Tu•GTP): 12.6 nM | Kd ([6]; read-out: Kd of EF-Tu's interaction with Phe-tRNAPhe, Example 2, saturating GTP (>10 μM)): ≤ 15 nM

Kirromycin
reduction of relative fluorescence ([2]; 1 μM added to pre-formed ternary complex): ~20% | kapp,2 rate of GDP mediated dissociation in the presence of kirromycin ([2]; 1 μM kirromycin, then GDP): 0.02* s^−1 | dissociation of ternary complex by saturating GDP with kirromycin present ([2]; 1 μM kirromycin, then saturating GDP): did not dissociate ternary complex in the time frame observed
